Experimental data taken from patent publication US9409943B2 (Bristol-Myers Squibb Company, priority 2012, dated 2016).
Where two headings read alike, the source gives them in different places.

Columns and labels:
[1] = system: HCV GT1a(H77) replicon; experiment: HCV replicon luciferase reporter assay, genotype 1a; type: cell-based, HCV genotype 1a; conditions: Hepatitis C virus, 72 h, HUH-7 cells, 3 days incubation
Source text: A stable HCV GT1a(H77) replicon luciferase reporter cell line (Yanagi M, Purcell R H, Emerson S U, et al. Transcripts from a single full-length cDNA clone of hepatitis C virus are infectious when directly transfected into the liver of a chimpanzee. Proc Natl Acad Sci USA 1997; 94(16):8738-8743) was generated as described previously for the genotype 1b(Con1) replicon luciferase cell line. The replicon construct was modified by introducing mutations into the genes encoding the NS3 helicase domain (proline replaced by leucine at position 1496) and NS5A (serine to isoleucine at position 2204) to improve replication in cell culture.
(§1) HCV replicon luciferase assays were developed to monitor the inhibitory effects of compounds described in the disclosure on HCV genotypes 1a and 1b viral replication. HUH-7 cells, constitutively expressing the HCV replicon, were grown in Dulbecco's Modified Eagle Media (DMEM) (Gibco-BRL) containing 10% Fetal calf serum (FCS) (Sigma) and 1 mg/mL G418 (Gibco-BRL). Compounds were serially diluted 3 folds in DMSO for a twenty-point titration and subsequently transferred to sterile 384-well tissue-culture treated plates (Corning cat #3571). The plates were then seeded with 50 μL of cells at a density of 3.0×10^3 cells/well in DMEM containing 4% FCS (final DMSO concentration at 0.5%). After 3 days incubation at 37° C., cells were analyzed for Renilla Luciferase activity using the EnduRen as substrate (Promega cat #E6485). The EnduRen substrate was diluted in DMEM and then added to the plates to a final concentration of 7.5 μM. The plates were incubated for 2 hrs at 37° C. and then read immediately for 30 seconds with Viewlux Imager (PerkinElmer) using a luminescence program. To assess cytotoxicity of compounds, CC50 values were generated by multiplexing the EnduRen-containing plates with Cell Titer-Blue (Promega, cat # G8082). Cell-Titer Blue (3 μL) was added to each well and incubated for 8 hrs at 37° C. The fluorescence signal from each well was read, with an excitation wavelength at 525/10 nm and an emission wavelength of 598/10 nm, using the Viewlux Imager.
(§2) The EC50 values for compounds were calculated by using a four-parameter logistic equation: y=A+((B−A)/(1+((C/x)^D))), where A and B denotes minimal and maximal % inhibition, respectively, C is the EC50, D is the hill slope and x represents compound concentration.

[2] = system: HCV GT1b(Con1) replicon; experiment: HCV replicon luciferase reporter assay, genotype 1b; type: cell-based, HCV genotype 1b; conditions: Hepatitis C virus, 72 h, HUH-7 cells, 3 days incubation
Source text: An HCV GT1b(Con1) replicon cell system was established as described by Lohmann V, Korner F, Koch J, Herian U, Theilmann L, Bartenschlager R., Science 285(5424):110-3 (1999) and modified to introduce a luciferase reporter (Krieger N, Lohmann V, and Bartenschlager R, J. Virol. 75(10):4614-4624 (2001)). cDNA encoding a humanized form of the Renilla luciferase gene, and a linker sequence fused directly to the 3′-end of the luciferase gene were introduced into the replicon construct using an Asc1 restriction site located in core, directly upstream of the neomycin marker gene. The adaptive mutation at position 1179 (serine to isoleucine) was also introduced (Blight K J, Kolykhalov, A A, Rice, C M, Science 290(5498):1972-1974). A stable cell line constitutively expressing this HCV replicon construct was generated by first linearizing plasmid DNAs with ScaI. RNA transcripts were synthesized in vitro using the T7 MegaScript transcription kit (Ambion, Austin, Tex.) according to manufacturer's directions. In vitro transcripts of the cDNA were transfected into the human hepatoma cell line, HUH-7. […] Resulting cell lines were characterized for positive and negative strand RNA production and protein production over time.
as §1, §2

| Compound | EC50 ([1]; read-out: LE_1a (EC50)) [nM] | EC50 ([1]; read-out: LE_1a (EC50, range)) [nM] | EC50 ([2]; read-out: LE_1b (EC50)) [nM] | EC50 ([2]; read-out: LE_1b (EC50, range)) [nM] |
| --- | --- | --- | --- | --- |
| C[C@@H]1CC/C=C\[C@@H]2C[C@@]2(C(=O)NS(=O)(=O)C2(CF)CC2)NC(=O)[C@@H]2C[C@@H](OC(=O)c3ccc4c(c3)OCO4)CN2C(=O)[C@@H](NC(=O)OC(C)(C)C(F)(F)F)[C@H](C)C1 [Compound 1011, (2R,6S,7R,9R,13aS,14aR,16aS,Z)-14a-(((1-(fluoromethyl)cyclopropyl)sulfonyl)carbamoyl)-7,9-dimethyl-5,16-dioxo-6-((((1,1,1-trifluoro-2-methylpropan-2-yl)oxy)carbonyl)amino)-1,2,3,5,6,7,8,9,10,11,13a,14,14a,15,16,16a-hexadecahydrocyclopropa[e]pyrrolo[1,2-a][1,4]diazacyclopentadecin-2-yl benzo[d][1,3]dioxole-5-carboxylate] | 7.98 | 5.01 to 35 | 1.68 | 1.01 to 5 |
| C[C@@H]1CC/C=C\[C@@H]2C[C@@]2(C(=O)NS(=O)(=O)C2(C)CC2)NC(=O)[C@@H]2C[C@@H](OC(=O)c3ccc4c(c3)OCCO4)CN2C(=O)[C@@H](NC(=O)OC(C)(C)C)[C@H](C)C1 [Compound 1013, (2R,6S,7R,9R,13aS,14aR,16aS,Z)-6-((tert-butoxycarbonyl)amino)-7,9-dimethyl-14a-(((1-methylcyclopropyl)sulfonyl)carbamoyl)-5,16-dioxo-1,2,3,5,6,7,8,9,10,11,13a,14,14a,15,16,16a-hexadecahydrocyclopropa[e]pyrrolo[1,2-a][1,4]diazacyclopentadecin-2-yl 2,3-dihydrobenzo[b][1,4]dioxine-6-carboxylate] | – | 1.01 to 5 | – | 1.01 to 5 |
| C[C@@H]1CC/C=C\[C@@H]2C[C@@]2(C(=O)NS(=O)(=O)C2(C)CC2)NC(=O)[C@@H]2C[C@@H](OC(=O)N3Cc4cccc(F)c4C3)CN2C(=O)[C@@H](NC(=O)OC(C)(C)C)[C@H](C)C1 [Compound 1315, (2R,6S,7R,9R,13aS,14aR,16aS,Z)-6-((tert-butoxycarbonyl)amino)-7,9-dimethyl-14a-(((1-methylcyclopropyl)sulfonyl)carbamoyl)-5,16-dioxo-1,2,3,5,6,7,8,9,10,11,13a,14,14a,15,16,16a-hexadecahydrocyclopropa[e]pyrrolo[1,2-a][1,4]diazacyclopentadecin-2-yl 4-fluoroisoindoline-2-carboxylate] | 0.96 | 0.51 to 1 | 0.33 | 0.1 to 0.5 |
| C[C@@H]1CC/C=C\[C@@H]2C[C@@]2(C(=O)NS(=O)(=O)C2(C)CC2)NC(=O)[C@@H]2C[C@@H](OC(=O)Nc3ccccc3C(F)(F)F)CN2C(=O)[C@@H](NC(=O)OC(C)(C)C)[C@H](C)C1 [Compound 1302] | – | 5.01 to 35 | – | 1.01 to 5 |
| CC[C@@H]1C[C@@H](C)CC/C=C\[C@@H]2C[C@@]2(C(=O)NS(=O)(=O)C2(C)CC2)NC(=O)[C@@H]2C[C@@H](OC(=O)N3Cc4cccc(F)c4C3)CN2C(=O)[C@H]1NC(=O)OC(C)(C)C [Compound 1312, (2R,6S,7R,9S,13aS,14aR,16aS,Z)-6-((tert-butoxycarbonyl)amino)-7-ethyl-9-methyl-14a-(((1-methylcyclopropyl)sulfonyl)carbamoyl)-5,16-dioxo-1,2,3,5,6,7,8,9,10,11,13a,14,14a,15,16,16a-hexadecahydrocyclopropa[e]pyrrolo[1,2-a][1,4]diazacyclopentadecin-2-yl 4-fluoroisoindoline-2-carboxylate] | – | 5.01 to 35 | – | 1.01 to 5 |
| C[C@@H]1CC/C=C\[C@@H]2C[C@@]2(C(=O)NS(=O)(=O)C2(C)CC2)NC(=O)[C@@H]2C[C@@H](OC(=O)Nc3ccc(F)cc3)CN2C(=O)[C@@H](NC(=O)OC(C)(C)C(F)(F)F)[C@H](C)C1 [Compound 1309] | – | 35 to 62.5 | – | 5.01 to 35 |
| CC[C@@H]1C[C@H](C)CC/C=C\[C@@H]2C[C@@]2(C(=O)NS(=O)(=O)C2(C)CC2)NC(=O)[C@@H]2C[C@@H](OC(=O)N3Cc4cccc(F)c4C3)CN2C(=O)[C@H]1NC(=O)OC(C)(C)C [Compound 1313, (2R,6S,7R,9R,13aS,14aR,16aS,Z)-6-((tert-butoxycarbonyl)amino)-7-ethyl-9-methyl-14a-(((1-methylcyclopropyl)sulfonyl)carbamoyl)-5,16-dioxo-1,2,3,5,6,7,8,9,10,11,13a,14,14a,15,16,16a-hexadecahydrocyclopropa[e]pyrrolo[1,2-a][1,4]diazacyclopentadecin-2-yl 4-fluoroisoindoline-2-carboxylate] | – | 1.01 to 5 | – | 1.01 to 5 |
| C[C@@H]1CC/C=C\[C@@H]2C[C@@]2(C(=O)NS(=O)(=O)C2(C)CC2)NC(=O)[C@@H]2C[C@@H](OC(=O)Nc3ccc(F)cc3)CN2C(=O)[C@@H](NC(=O)OC(C)(C)C)[C@H](C)C1 [Compound 1304] | 62.5 | 35 to 62.5 | 20.6 | 5.01 to 35 |
| C[C@H]1CC/C=C\[C@@H]2C[C@@]2(C(=O)NS(=O)(=O)C2(C)CC2)NC(=O)[C@@H]2C[C@@H](OC(=O)c3ccc4c(c3)OCCO4)CN2C(=O)[C@@H](NC(=O)OC(C)(C)C)[C@H](C)C1 [Compound 1012, (2R,6S,7R,9S,13aS,14aR,16aS,Z)-6-((tert-butoxycarbonyl)amino)-7,9-dimethyl-14a-(((1-methylcyclopropyl)sulfonyl)carbamoyl)-5,16-dioxo-1,2,3,5,6,7,8,9,10,11,13a,14,14a,15,16,16a-hexadecahydrocyclopropa[e]pyrrolo[1,2-a][1,4]diazacyclopentadecin-2-yl 2,3-dihydrobenzo[b][1,4]dioxine-6-carboxylate] | – | 5.01 to 35 | – | 1.01 to 5 |
| C[C@@H]1CC/C=C\[C@@H]2C[C@@]2(C(=O)NS(=O)(=O)C2(CF)CC2)NC(=O)[C@@H]2C[C@@H](OC(=O)c3ccc4ccccc4c3)CN2C(=O)[C@@H](NC(=O)OC(C)(C)C(F)(F)F)[C@H](C)C1 [Compound 1006] | – | 1.01 to 5 | – | 1.01 to 5 |
| COc1ccc(C(=O)O[C@@H]2C[C@H]3C(=O)N[C@]4(C(=O)NS(=O)(=O)C5(C)CC5)C[C@H]4/C=C\CC[C@@H](C)C[C@@H](C)[C@H](NC(=O)OC(C)(C)C(F)(F)F)C(=O)N3C2)cc1 [Compound 1005, (2R,6S,7R,9R,13aS,14aR,16aS,Z)-7,9-dimethyl-14a-(((1-methylcyclopropyl)sulfonyl)carbamoyl)-5,16-dioxo-6-((((1,1,1-trifluoro-2-methylpropan-2-yl)oxy)carbonyl)amino)-1,2,3,5,6,7,8,9,10,11,13a,14,14a,15,16,16a-hexadecahydrocyclopropa[e]pyrrolo[1,2-a][1,4]diazacyclopentadecin-2-yl 4-methoxybenzoate] | 1.15 | 1.01 to 5 | 0.75 | 0.51 to 1 |
| C[C@@H]1CC/C=C\[C@@H]2C[C@@]2(C(=O)NS(=O)(=O)C2(C)CC2)NC(=O)[C@@H]2C[C@@H](OC(=O)Nc3ccccc3C(F)(F)F)CN2C(=O)[C@@H](NC(=O)OC(C)(C)C(F)(F)F)[C@H](C)C1 [Compound 1307] | – | 1.01 to 5 | – | 1.01 to 5 |
| C[C@@H]1CC/C=C\[C@@H]2C[C@@]2(C(=O)NS(=O)(=O)C2(C)CC2)NC(=O)[C@@H]2C[C@@H](OC(=O)c3ccc4c(c3)OCCO4)CN2C(=O)[C@@H](NC(=O)OC(C)(C)C(F)(F)F)[C@H](C)C1 [Compound 1015, (2R,6S,7R,9R,13aS,14aR,16aS,Z)-7,9-dimethyl-14a-(((1-methylcyclopropyl)sulfonyl)carbamoyl)-5,16-dioxo-6-((((1,1,1-trifluoro-2-methylpropan-2-yl)oxy)carbonyl)amino)-1,2,3,5,6,7,8,9,10,11,13a,14,14a,15,16,16a-hexadecahydrocyclopropa[e]pyrrolo[1,2-a][1,4]diazacyclopentadecin-2-yl 2,3-dihydrobenzo[b][1,4]dioxine-6-carboxylate] | – | 5.01 to 35 | – | 1.01 to 5 |
